Reference: patent publication US20240002368A1 (QILU REGOR THERAPEUTICS INC., priority 2020, published 2024)
pIC50: −log10 of the molar value.

system: STING pathway; assay: IFN β reporter assay (HTRF, 2′3′-cGAMP-stimulated THP1 cells); type: cell-based, human; conditions: Homo sapiens, THP-1, THP1 cells, 5 μM 2′3′-cGAMP, IFN β secretion inhibition; class symbols; read-out: IFN β reporter activity IC50
Description: STING pathway deactivation by the compounds described herein was measured using THP1 cells. The THP1 Cells (obtained from ATCC, Cat #TIB-202) were maintained in RPMI-1640 (Gibco, Cat #22400105), 10% FBS, 1% Pen-Strep, 0.05 mM 2-mercaptoethanol. For STING activation, 2′3′-cGAMP (MW 718.38, obtained from Invivogen) was used and prepared in serum-free RPMI-1640 media. Growth media: RPMI-1640 (HEPES, glutamine), 10% FBS, 1% Pen-Strep, 0.05 mM 2-mercaptoethanol. Assay media: RPMI-1640 (HEPES, glutamine), 0.5% FBS. 2′3′-cGAMP: Dissolve 2′3′-cGAMP to 10 mM stock in H2O.
The cells were prepared and seeded at 100K, 90 μL/well with assay media in cell culture plate (Greiner 655180). The compounds were added in 96-well tissue culture plates by Tecan D300e for a final concentration of 0.00137-3 μM.
Lipo2000/3000 and 2′3′-cGAMP stock solutions were diluted respectively in serum-free RPMI-1640 media. The diluted 2′3′-cGAMP and Lipo (V/V=1:1) were mixed and stood for 15 min at room temperature. 10 μL 2,3-cGAMP/Lipofectamine (10×) was transferred to the 96-well assay plate with a final 2′3′-cGAMP concentration of 5 μM. The cell plates were centrifuged at 1000 rpm for 5 min after incubating at 37° C., 5% CO2 overnight.
All reagents (human IFN beta kit, Cisbio 62HIFNBPEG) were warmed to room temperature for at least 30 min before the assay. The instructions of the kit were followed to prepare the detection media. 14 μL of cell supernatants was transferred into their dedicated wells in 384-well plate. Then 2 μL of the activation reagent solution and 4 μL of the mixed antibody solution were added to all wells. The plate was sealed and incubated for 3 h at room temperature.
The HTRF signal was read in Envision (PerkinElmer). IFN β reporter activity was then measured. The calculated ratio is the signal at 665 nm/signal at 615 nm. IC50 values are calculated by using standard methods known in the art.

Compound | pIC50
O=C(Nc1c[nH]c2cc(F)c(F)cc12)c1cc2ccc(C(F)(F)F)cc2[nH]1 [Example 79] | 6.70 to 7.30
O=C(Nc1c[nH]c2cc(F)c(F)cc12)c1n[nH]c2ccccc12 [Example 63] | 6.70 to 7.30
O=C(Nc1c[nH]c2cc(F)c(F)cc12)c1cc2ccccc2[nH]1 [Example 65] | > 7.30
O=C(Nc1c[nH]c2ccccc12)c1n[nH]c2cc(Br)ccc12 [Example 9] | > 7.30
Cn1cc(C(=O)Nc2c[nH]c3ccc(F)cc23)c2cc(F)c(CNC(C)(C)C)cc21 [Example 96] | < 6.00
Cn1cc(C(=O)Nc2c[nH]c3ccc(F)cc23)c2cc(F)c(C3CCOCC3)cc21 [Example 81] | > 7.30
COC(=O)c1ccc2[nH]cc(NC(=O)c3cn(C)c4cc(C(F)(F)F)ccc34)c2c1 [Example 33] | 6.70 to 7.30
O=C(Nc1c[nH]c2cc(F)c(F)cc12)c1c[nH]c2ccccc12 [Example 64] | 6.70 to 7.30
Cn1cc(C(=O)Nc2c[nH]c3ccc(N4CCNCC4=O)cc23)c2ccc(C(F)(F)F)cc21 [Example 108, 1-methyl-N-[5-(2-oxopiperazin-1-yl)-1H-indol-3-yl]-6-(trifluoromethyl)indole-3-carboxamide] | < 6.00
CN(C)Cc1cc2c(cc1F)c(C(=O)Nc1c[nH]c3ccc(F)cc13)cn2C [Example 94] | < 6.00
Cn1cc(C(=O)Nc2c[nH]c3ccc(F)cc23)c2cc(F)c(CNCC(F)F)cc21 [Example 103] | 6.70 to 7.30
O=C(O)c1ccc2c(C(=O)Nc3c[nH]c4ccc(F)cc34)n[nH]c2c1 [Example 88, 3-[(5-fluoro-1H-indol-3-yl)carbamoyl]-1H-indazole-6-carboxylic acid] | < 6.00
CNCc1ccc2[nH]cc(NC(=O)c3cn(C)c4cc(C(F)(F)F)ccc34)c2c1 [Example 110, 1-methyl-N-(5-((methylamino)methyl)-1H-indol-3-yl)-6-(trifluoromethyl)-1H-indole-3-carboxamide] | < 6.00
O=C(Nc1c[nH]c2ccc(F)cc12)c1n[nH]c2nc(OCC(F)(F)F)ccc12 [Example 69] | 6.70 to 7.30
O=C(Nc1c[nH]c2ccc(C(F)(F)F)cc12)c1n[nH]c2cc(C(F)(F)F)ccc12 [Example 10] | 6.70 to 7.30
O=C(Nc1c[nH]c2ccc(F)cc12)c1n[nH]c2cc(Cl)c(Cl)cc12 [Example 12] | > 7.30
NC(=O)c1ccc2c(C(=O)N(CC(F)(F)F)c3c[nH]c4cc(F)ccc34)n[nH]c2c1 [Example 89, N-(6-fluoro-1H-indol-3-yl)-N-(2,2,2-trifluoroethyl)-1H-indazole-3,6-dicarboxamide] | 6.00 to 6.70
COC(=O)c1ccc2c(C(=O)Nc3c[nH]c4ccc(F)cc34)n[nH]c2c1 [Example 27] | < 6.00

Compound | pIC50
Cn1cc(C(=O)Nc2c[nH]c3ccc(S(C)(=O)=O)cc23)c2ccc(C(F)(F)F)cc21 [Example 37] | < 6.00
Cn1cc(C(=O)Nc2c[nH]c3ccc(F)cc23)c2cc(F)c(CN3CCOCC3)cc21 [Example 95] | 6.00 to 6.70
O=C(Nc1c[nH]c2ccc(F)cc12)c1n[nH]c2ncc(Br)cc12 [Example 7] | 6.70 to 7.30
CS(=O)(=O)c1ccc2c(C(=O)Nc3c[nH]c4ccc(F)cc34)n[nH]c2c1 [Example 13] | < 6.00
O=C(Nc1c[nH]c2ccc(F)cc12)c1cnn2cc(Cl)ccc12 [Example 23] | 6.00 to 6.70
C[C@@H](NCc1cc2c(cc1F)c(C(=O)Nc1c[nH]c3ccc(F)cc13)cn2C)C(F)(F)F [Example 105] | > 7.30
CN(C)Cc1ccc2[nH]cc(NC(=O)c3cn(C)c4cc(C(F)(F)F)ccc34)c2c1 [Example 111, N-(5-((dimethylamino)methyl)-1H-indol-3-yl)-1-methyl-6-(trifluoromethyl)-1H-indole-3-carboxamide] | < 6.00
Cn1cc(C(=O)Nc2c[nH]c3ccc(F)cc23)c2cc(F)c(CNCC(F)(F)F)cc21 [Example 91, 5-fluoro-N-(5-fluoro-1H-indol-3-yl)-1-methyl-6-[(2,2,2-trifluoroethylamino)methyl]indole-3-carboxamide] | 6.70 to 7.30
O=C(Nc1c[nH]c2ccc(F)cc12)c1n[nH]c2cc(C3CCOCC3)ccc12 [Example 28] | 6.70 to 7.30
C[C@@H]1COCCN1c1cc2c(cc1F)c(C(=O)Nc1c[nH]c3ccc(F)cc13)cn2C [Example 50] | 6.00 to 6.70
O=C(Nc1c[nH]c2cc(F)c(F)cc12)c1n[nH]c2cc(C(F)(F)F)ccc12 [Example 17] | > 7.30
Cn1cc(C(=O)Nc2c[nH]c3ccc(C(=O)O)cc23)c2ccc(C(F)(F)F)cc21 [Example 87, 3-[[1-methyl-6-(trifluoromethyl)indole-3-carbonyl]amino]-1H-indole-5-carboxylic acid] | < 6.00
O=C(Nc1c[nH]c2ccc(F)cc12)c1cc2ccc(Br)cn2n1 [Example 57] | > 7.30
Cn1cc(C(=O)Nc2c[nH]c3ccc(F)cc23)c2cc(F)c(CN3CCC(F)CC3)cc21 [Example 102] | 6.00 to 6.70
Cn1cc(C(=O)Nc2c[nH]c3cc(F)c(Cl)cc23)c2cc(F)c(C3CCOCC3)cc21 [Example 48] | 6.70 to 7.30
O=C(Nc1c[nH]c2cc(F)c(F)cc12)c1c[nH]c2cc(C(F)(F)F)ccc12 [Example 52] | > 7.30
Cn1cc(C(=O)Nc2c[nH]c3ccc(C#N)cc23)c2ccc(C3=CCOCC3)cc21 [Example 54] | 6.00 to 6.70

same assay, conditions: Homo sapiens, THP-1, THP1 cells, 5 μM 2′3′-cGAMP, IFN β secretion inhibition; numeric values (comparators); read-out: IFN β reporter activity IC50

Compound | pIC50
O=C(Nc1c[nH]c2cc(F)c(F)cc12)c1cnc2[nH]ncc2c1 [Comparator A, reference compound] | < 4.52

same assay, conditions: Homo sapiens, THP-1, read-out: IFN β reporter activity IC50

Compound | pIC50
N#Cc1ccc2[nH]cc(NC(=O)c3cn(C4CC4)c4nc(O[C@H]5CCOC5)ccc34)c2c1 [Example 42] | 6.00 to 6.70
Cn1nc(C(=O)Nc2c[nH]c3ccccc23)c2cc(Br)ccc21 [Example 3] | 6.70 to 7.30
N#Cc1ccc2[nH]cc(NC(=O)c3cn(C4CC4)c4nc(OCC(F)(F)F)ccc34)c2c1 [Example 41] | 6.70 to 7.30
O=C(Nc1c[nH]c2ccc(F)cc12)c1cn([C@H]2CCOC2)c2cc(C(F)(F)F)ccc12 [Example 77] | 6.70 to 7.30
COCCOc1ccc2c(C(=O)Nc3c[nH]c4ccc(F)cc34)cn(C3CC3)c2n1 [Example 46] | 6.70 to 7.30
CN1CC=C(c2cc3c(cc2Cl)c(C(=O)Nc2c[nH]c4ccc(C#N)cc24)cn3C)CC1 [Example 119, 5-chloro-N-(5-cyano-1H-indol-3-yl)-1-methyl-6-(1-methyl-3,6-dihydro-2H-pyridin-4-yl)indole-3-carboxamide] | < 6.00
Cn1nc(C(=O)Nc2c[nH]c3ccccc23)c2ccc(Br)cc21 [Example 4] | 6.70 to 7.30
N#Cc1ccc2[nH]cc(NC(=O)c3cn(C4CC4)c4nc(O[C@@H]5CCOC5)ccc34)c2c1 [Example 43] | 6.00 to 6.70
Cn1cc(C(=O)Nc2c[nH]c3ccccc23)c2ccc(C(F)(F)F)cc21 [Example 18] | 6.70 to 7.30
O=C(Nc1c[nH]c2ccc(F)cc12)c1cn(C2CNC2)c2cc(C(F)(F)F)ccc12 [Example 113, 1-(azetidin-3-yl)-N-(5-fluoro-1H-indol-3-yl)-6-(trifluoromethyl)indole-3-carboxamide] | < 6.00
O=C(Nc1c[nH]c2ccc(F)cc12)c1cn([C@@H]2CCOC2)c2cc(C(F)(F)F)ccc12 [Example 76] | 6.00 to 6.70
CN1CC=C(c2ccc3c(C(=O)Nc4c[nH]c5ccc(F)cc45)cn(C)c3c2)CC1 [Example 117] | < 6.00
N#Cc1ccc2[nH]cc(NC(=O)c3cn(C4COC4)c4cc(C5=CCOCC5)c(F)cc34)c2c1 [Example 112, N-(5-cyano-1H-indol-3-yl)-6-(3,6-dihydro-2H-pyran-4-yl)-5-fluoro-1-(oxetan-3-yl)indole-3-carboxamide] | 6.70 to 7.30
Cc1[nH]c2ccc(F)cc2c1NC(=O)c1cn(C)c2cc(C(F)(F)F)ccc12 [Comparator C, reference compound] | 4.96
Cn1cc(C(=O)Nc2c[nH]c3ccc(F)cc23)c2ccccc21 [Example 35] | 6.00 to 6.70
Cn1cc(C(=O)Nc2c[nH]c3ccc(F)cc23)c2ccc(C(F)(F)F)cc21 [Example 20] | > 7.30
COc1ccc2[nH]cc(NC(=O)c3cn(C)c4cc(C(F)(F)F)ccc34)c2c1 [Example 51] | 6.70 to 7.30
Cn1cc(C(=O)Nc2c[nH]c3ccc(F)cc23)c2cc(C(F)(F)F)cnc21 [Example 22] | 6.00 to 6.70
Cn1cc(C(=O)Nc2c[nH]c3ccc(F)cc23)c2ccc(Cl)nc21 [Example 71] | 6.70 to 7.30
O=C(Nc1c[nH]c2ccccc12)c1nn(CC2CC2)c2cc(C(F)(F)F)ccc12 [Example 30] | 6.70 to 7.30
Cn1cc(C(=O)Nc2c[nH]c3ccc(C#N)cc23)c2ccc(C(F)(F)F)cc21 [Example 36] | > 7.30
